Like-named read-outs stand apart in the source and are kept apart here.
Target: T1, human GR (Homo sapiens, UniProt P04150)
T1 sequence (P04150 1-777): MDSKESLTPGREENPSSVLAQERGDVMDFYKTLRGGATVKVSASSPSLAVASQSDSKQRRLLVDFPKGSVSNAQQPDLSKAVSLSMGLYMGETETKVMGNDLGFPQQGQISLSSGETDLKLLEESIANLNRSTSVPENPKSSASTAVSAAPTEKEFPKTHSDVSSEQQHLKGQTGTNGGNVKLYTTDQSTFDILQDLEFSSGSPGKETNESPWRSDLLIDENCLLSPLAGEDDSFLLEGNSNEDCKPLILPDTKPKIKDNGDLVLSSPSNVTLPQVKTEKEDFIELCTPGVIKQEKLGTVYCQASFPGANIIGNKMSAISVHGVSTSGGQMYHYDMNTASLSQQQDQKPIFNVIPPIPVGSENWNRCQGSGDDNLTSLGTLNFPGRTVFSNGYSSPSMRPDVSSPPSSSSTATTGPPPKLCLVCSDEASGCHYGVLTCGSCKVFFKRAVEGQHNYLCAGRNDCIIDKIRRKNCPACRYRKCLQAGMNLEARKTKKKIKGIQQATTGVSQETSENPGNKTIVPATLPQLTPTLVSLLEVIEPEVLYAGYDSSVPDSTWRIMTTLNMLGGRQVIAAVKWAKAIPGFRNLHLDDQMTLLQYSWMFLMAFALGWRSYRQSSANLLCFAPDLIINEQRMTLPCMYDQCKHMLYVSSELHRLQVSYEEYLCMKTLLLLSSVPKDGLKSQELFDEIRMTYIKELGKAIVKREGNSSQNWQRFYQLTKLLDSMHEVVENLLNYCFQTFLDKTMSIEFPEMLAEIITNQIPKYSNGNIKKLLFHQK
Assay: Transrepression Assay (GITAR), TNFα-β-lactamase reporter gene in U937 cells
Assay type: cell-based
Parameters: U937 cells contain an endogenous glucocorticoid receptor (GR); endogenous in cells; host or cells: U937 cells stably transfected with the TNF-α promoter/β-lactamase reporter only
How it was run: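 Reporter readout used CCF2-AM loading for 70–90 min at room temperature after overnight (~18 h, 37 °C) PMA (5 ng/ml final) and LPS (100 ng/ml final) stimulation of compound-treated (30–45 min) TNFα-β-lactamase U937 cells expressing native GR. Activity was normalised to 100 nM dexamethasone repression.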

[1] = U-937, 100 nM dexamethasone = 100% activity, read-out: maximal activity in the transrepression assay

| Emax [1] [%] | SMILES | Emax (U-937, read-out: maximal activity in the transrepression assay) [%] |
| --- | --- | --- |
| 5 to 100 | COC(=O)Nc1c(F)cccc1CC[C@]1(O)CCC2=Cc3c(cnn3-c3ccc(F)cc3)C[C@@]21C [Example 123, methyl (2-fluoro-6-{2-[(4αS,5R)-1-(4-fluorophenyl)-5-hydroxy-4α-methyl-1,4,4α,5,6,7-hexahydrocyclopenta[f]indazol-5-yl]ethyl}phenyl)carbamate] | – |
| 5 to 100 | CC(=O)NCc1ccccc1CC[C@]1(O)CCC2=Cc3c(cnn3-c3ccc(F)cc3)C[C@@]21C [Example 105, N-(2-{2-[(4αS,5R)-1-(4-fluorophenyl)-5-hydroxy-4α-methyl-1,4,4α,5,6,7-hexahydrocyclopenta[f]indazol-5-yl]ethyl}benzyl)acetamide] | – |
| 5 to 100 | C[C@]12Cc3cnn(-c4ccc(F)cc4)c3C=C1CC[C@@]2(O)CCc1cccc(F)c1CNS(=O)(=O)c1cccnc1 [Example 82, N-(2-fluoro-6-{2-[(4αS,5R)-1-(4-fluorophenyl)-5-hydroxy-4α-methyl-1,4,4α,5,6,7-hexahydrocyclopenta[f]indazol-5-yl]ethyl}benzyl)pyridine-3-sulfonamide] | – |
| 5 to 100 | C[C@]12Cc3cnn(-c4ccc(F)cc4)c3C=C1CC[C@@]2(O)CCc1ccccc1C(O)C(N)=O (stereo partly drawn) [Example 192, 2-(2-{2-[(4αS,5R)-1-(4-fluorophenyl)-5-hydroxy-4α-methyl-1,4,4α,5,6,7-hexahydrocyclopenta[f]indazol-5-yl]ethyl}phenyl)-2-hydroxyacetamide] | – |
| 5 to 100 | C[C@]12Cc3cnn(-c4ccc(F)cc4)c3C=C1CC[C@@]2(O)CCc1cccc(F)c1C=O [Example 154, 2-fluoro-6-{2-[(4αS,5R)-1-(4-fluorophenyl)-5-hydroxy-4α-methyl-1,4,4α,5,6,7-hexahydrocyclopenta[f]indazol-5-yl]ethyl}benzaldehyde] | – |
| 5 to 100 | C[C@]12Cc3cnn(-c4ccc(F)cc4)c3C=C1CC[C@@]2(O)CCc1cc(F)ccc1CC(N)=O [Example 193, 2-(4-fluoro-2-{2-[(4αS,5R)-1-(4-fluorophenyl)-5-hydroxy-4α-methyl-1,4,4α,5,6,7-hexahydrocyclopenta[f]indazol-5-yl]ethyl}phenyl)acetamide] | – |
| 5 to 100 | C[C@]12Cc3cnn(-c4ccc(F)cc4)c3C=C1CC[C@@]2(O)CCc1cccc(F)c1CNS(=O)(=O)c1ccccc1 [Example 78, N-(2-fluoro-6-{2-[(4αS,5R)-1-(4-fluorophenyl)-5-hydroxy-4α-methyl-1,4,4α,5,6,7-hexahydrocyclopenta[f]indazol-5-yl]ethyl}benzyl)benzenesulfonamide] | – |
| 5 to 100 | C[C@]12Cc3cnn(-c4ccc(F)cc4)c3C=C1CC[C@@]2(O)CCc1cccc(F)c1C1(NS(=O)(=O)CC(F)(F)F)CC1 [Example 102, 2,2,2-trifluoro-N-[1-(2-fluoro-6-{2-[(4αS,5R)-1-(4-fluorophenyl)-5-hydroxy-4α-methyl-1,4,4α,5,6,7-hexahydrocyclopenta[f]indazol-5-102yl]ethyl}phenyl)cyclopropyl]ethanesulfonamide] | – |
| 5 to 100 | C[C@]12Cc3cnn(-c4ccc(F)cc4)c3C=C1CC[C@@]2(O)CCc1ccccc1-c1cscn1 [Example 158, (4αS,5R)-1-(4-fluorophenyl)-4α-methyl-5-{2-[2-[1,3-thiazol-4-yl)phenyl]ethyl}-1,4,4α,5,6,7-hexahydrocyclopenta[f]indazol-5-ol] | – |
| 5 to 100 | C[C@]12Cc3cnn(-c4ccc(F)cc4)c3C=C1CC[C@@]2(O)CCc1cc(F)c(F)cc1C(N)=O [Example 178, 4,5-difluoro-2-{2-[(4αS,5R)-1-(4-fluorophenyl)-5-hydroxy-4α-methyl-1,4,4α,5,6,7-hexahydrocyclopenta[f]indazol-5-yl]ethyl}benzamide] | – |
| 5 to 100 | C[C@]12Cc3cnn(-c4ccc(F)cc4)c3C=C1CC[C@@]2(O)CCc1ccccc1C(=O)NCC(F)(F)F [Example 64, 2-{2-[(4αS,5R)-1-(4-fluorophenyl)-5-hydroxy-4α-methyl-1,4,4α,5,6,7-hexahydrocyclopenta[f]indazol-5-yl]ethyl}-N-(2,2,2-trifluoroethyl)benzamide] | – |
| 5 to 100 | C[C@]12Cc3cnn(-c4ccc(F)c(F)c4)c3C=C1CC[C@@]2(O)CCc1cccc(Cl)c1C(N)=O [Example 176, 2-chloro-6-{2-[(4αS,5R)-1-(3,4-difluorophenyl)-5-hydroxy-4α-methyl-1,4,4α,5,6,7-hexahydrocyclopenta[f]indazol-5-yl]ethyl}benzamide] | – |
| 5 to 100 | C[C@]12Cc3cnn(-c4ccc(F)cc4)c3C=C1CC[C@@]2(O)CCc1cc(F)ccc1C#N [Example 146, 4-fluoro-2-{2-[(4αS,5R)-1-(4-fluorophenyl)-5-hydroxy-4α-methyl-1,4,4α,5,6,7-hexahydrocyclopenta[f]indazol-5-yl]ethyl}benzonitrile] | – |
| 5 to 100 | C[C@]12Cc3cnn(-c4ccc(F)c(F)c4)c3C=C1CC[C@@]2(O)CCc1cc(Cl)ccc1C(N)=O [Example 177, 4-chloro-2-{2-[(4αS,5R)-1-(3,4-difluorophenyl)-5-hydroxy-4α-methyl-1,4,4α,5,6,7-hexahydrocyclopenta[f]indazol-5-yl]ethyl}benzamide] | – |
| 5 to 100 | C[C@]12Cc3cnn(-c4ccc(F)cc4)c3C=C1CC[C@@]2(O)CCc1ccccc1S(N)(=O)=O [Example 22, 2-{2-[(4αS,5R)-1-(4-fluorophenyl)-5-hydroxy-4α-methyl-1,4,4α,5,6,7-hexahydrocyclopenta[f]indazol-5-yl]ethyl}benzenesulfonamide] | – |
| 5 to 100 | C[C@]12Cc3cnn(-c4ccc(F)cc4)c3C=C1CC[C@@]2(O)CCc1cccc(Cl)c1C(N)=O [Example 169, 2-chloro-6-{2-[(4αS,5R)-1-(4-fluorophenyl)-5-hydroxy-4α-methyl-1,4,4α,5,6,7-hexahydrocyclopenta[f]indazol-5-yl]ethyl}benzamide] | – |
| – | CCNC(=O)Oc1ccccc1CC[C@]1(O)CCC2=Cc3c(cnn3-c3ccc(F)cc3)C[C@@]21C [Example 18, 2-{2-[(4αS,5R)-1-(4-fluorophenyl)-5-hydroxy-4α-methyl-1,4,4α,5,6,7-hexahydrocyclopenta[f]indazol-5-yl]ethyl}phenyl ethylcarbamate] | 5 to 100 |
| 5 to 100 | C[C@]12Cc3cnn(-c4ccc(F)cc4)c3C=C1CC[C@@]2(O)CCc1ccccc1CC(=O)NCC(F)(F)F [Example 56, 2-(2-{2-[(4αS,5R)-1-(4-fluorophenyl)-5-hydroxy-4α-methyl-1,4,4α,5,6,7-hexahydrocyclopenta[f]indazol-5-yl]ethyl}phenyl)-N-(2,2,2-trifluoroethyl)acetamide] | – |
| 5 to 100 | C[C@]12Cc3cnn(-c4ccc(F)cc4)c3C=C1CC[C@@]2(O)CCc1ccccc1CC(=O)NC1CC1 [Example 109, N-cyclopropyl-2-(2-{2-[(4αS,5R)-1-(4-fluorophenyl)-5-hydroxy-4α-methyl-1,4,4α,5,6,7-hexahydrocyclopenta[f]indazol-5-yl]ethyl}phenyl)acetamide] | – |
| 5 to 100 | Cn1cnc(S(=O)(=O)NCc2c(F)cccc2CC[C@]2(O)CCC3=Cc4c(cnn4-c4ccc(F)cc4)C[C@@]32C)c1 [Example 93, N-(2-fluoro-6-{2-[(4αS,5R)-1-(4-fluorophenyl)-5-hydroxy-4α-methyl-1,4,4α,5,6,7-hexahydrocyclopenta[f]indazol-5-yl]ethyl}benzyl)-1-methyl-1H-imidazole-4-sulfonamide] | – |
| 5 to 100 | CC1(NC(=O)c2ccccc2CC[C@]2(O)CCC3=Cc4c(cnn4-c4ccc(F)c(F)c4)C[C@@]32C)CC1 [Example 39, 2-{2-[(4αS,5R)-1-(3,4-difluorophenyl)-5-hydroxy-4α-methyl-1,4,4α,5,6,7-hexahydrocyclopenta[f]indazol-5-yl]ethyl}-N-(1-methylcyclopropyl)benzamide] | – |
| 5 to 100 | C[C@]12Cc3cnn(-c4ccc(F)cc4)c3C=C1CC[C@@]2(O)CCc1cccc(F)c1C(N)=O [Example 68, 2-fluoro-6-{2-[(4αS,5R)-1-(4-fluorophenyl)-5-hydroxy-4α-methyl-1,4,4α,5,6,7-hexahydrocyclopenta[f]indazol-5-yl]ethyl}benzamide] | – |
| 5 to 100 | C[C@]12Cc3cnn(-c4ccc(F)cc4)c3C=C1CC[C@@]2(O)CCc1ccc(C(F)(F)F)cc1C#N [Example 164, 2-{2-[(4αS,5R)-1-(4-fluorophenyl)-5-hydroxy-4α-methyl-1,4,4α,5,6,7-hexahydrocyclopenta[f]indazol-5-yl]ethyl}-5-(trifluoromethyl)benzonitrile] | – |
